24 molecules from ChEMBL document CHEMBL1157560, “SAR studies on new bis-aryls 5-HT7 ligands: Synthesis and molecular modeling” (Bioorg Med Chem, 2010) can be followed below.

SMILES strings stand for the structures.

In one assay the target is 5-hydroxytryptamine receptor 7 (Homo sapiens, UniProt P34969). Briefly: Displacement of [3H]5CT from human cloned 5HT7B receptor expressed in HEK293 cells. In kind it is cell-based.
5-hydroxytryptamine receptor 7, sequence (P34969 whole entry): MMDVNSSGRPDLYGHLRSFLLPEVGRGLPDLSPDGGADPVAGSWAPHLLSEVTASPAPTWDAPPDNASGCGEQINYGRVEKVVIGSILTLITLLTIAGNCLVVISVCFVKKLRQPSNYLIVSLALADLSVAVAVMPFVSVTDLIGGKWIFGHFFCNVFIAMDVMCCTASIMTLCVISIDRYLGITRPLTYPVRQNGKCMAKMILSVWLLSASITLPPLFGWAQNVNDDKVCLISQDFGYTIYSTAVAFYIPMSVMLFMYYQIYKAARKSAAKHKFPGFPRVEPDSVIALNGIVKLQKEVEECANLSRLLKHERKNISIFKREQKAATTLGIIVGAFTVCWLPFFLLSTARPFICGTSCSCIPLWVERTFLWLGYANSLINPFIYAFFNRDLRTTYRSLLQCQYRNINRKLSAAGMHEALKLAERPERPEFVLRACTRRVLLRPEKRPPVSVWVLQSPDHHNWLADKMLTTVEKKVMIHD
`CN(C)CCSc1cccc(Br)n1` came in with a Ki of 37 nM.

As for `COc1cccc(OC)c1-c1cccc2c1OC[C@H](N(C)C)C2`, the affinity corresponds to a Ki of 2.55 nM. Take `CCCN(CCC)[C@H]1COc2c(cccc2-c2ccccc2)C1`: the Ki amounted to 3.38 nM.

In the case of `CN(C)CCOc1ccccc1-c1ccccc1`, the Ki stood at 156 nM.

With `CCCN(CCC)[C@H]1CCc2c(cccc2-c2ccccc2)C1`, affinity was put at a Ki of 2.91 nM.

Molecule `Cc1cccc(C)c1-c1ccc2c(c1)C[C@H](N(C)C)CO2` showed a Ki of 13.4 nM. Still for that read-out and setting: to `Cc1cccc(C)c1-c1ccccc1SCCN(C)C` belongs 1430 nM. Consider `Cc1cccc(C)c1-c1cccc(OCCN(C)C)n1`, for which the Ki came out at 1610 nM. Same read-out and setting: to `COc1cccc(OC)c1-c1cnnc(CCN(C)C)n1` belongs over 10000 nM; to `CCCN(CCC)[C@H]1CCc2c(cccc2-c2cccc3ccccc23)C1`, 0.3 nM; to `Cc1cccc(C)c1-c1cccc(SCCN(C)C)n1`, 128 nM. Same read-out and setting: the result for `Cc1cccc(C)c1-c1cnnc(CCN(C)C)n1` reads over 10000 nM; that for `CN(C)CCSc1cccc(-c2ccoc2)n1`, 26 nM; that for `CN(C)CCOc1ccccc1Br`, 2660 nM. `COc1ccccc1-c1ccccc1OCCN(C)C` yielded an inhibition constant (Ki) of 669 nM. `CN(C)CCc1nncc(-c2ccccc2)n1` returned a Ki of over 10000 nM. On the same count and under the same terms, to `CN(C)CCSc1ccccc1-c1ccccc1` belongs 553 nM; to `COc1cccc(OC)c1-c1ccnc(CCN(C)C)n1`, 1480 nM; to `CN(C)CCSc1ccccc1Br`, 4110 nM.

Another assay deals with T1, 5-hydroxytryptamine receptor 1A (Rattus norvegicus, UniProt P19327).
T1 sequence (P19327 whole entry): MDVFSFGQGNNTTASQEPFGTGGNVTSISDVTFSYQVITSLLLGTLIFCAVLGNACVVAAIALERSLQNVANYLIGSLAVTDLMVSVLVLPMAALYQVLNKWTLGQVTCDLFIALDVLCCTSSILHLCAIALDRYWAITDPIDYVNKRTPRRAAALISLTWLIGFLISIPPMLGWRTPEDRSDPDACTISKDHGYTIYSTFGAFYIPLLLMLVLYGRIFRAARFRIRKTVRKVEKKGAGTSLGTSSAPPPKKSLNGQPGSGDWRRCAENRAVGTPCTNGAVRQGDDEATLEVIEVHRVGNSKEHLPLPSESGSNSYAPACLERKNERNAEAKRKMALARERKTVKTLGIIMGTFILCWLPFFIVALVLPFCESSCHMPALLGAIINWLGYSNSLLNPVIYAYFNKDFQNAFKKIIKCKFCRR
Briefly: Displacement of [3H]8-OH-DPAT from 5HT1A receptor in rat hippocampus. The class given is tissue-based. For orientation: Displacement assays read how much labelled ligand stays bound in the presence of the test substance.
For the molecule `CN(C)CCSc1cccc(Br)n1`, the Ki was 133 nM.

Turning to `CN(C)CCSc1cccc(-c2ccccc2)n1`, the Ki turned out to be 43 nM. For the molecule `Cc1cccc(C)c1-c1cccc(OCCN(C)C)n1`, the affinity corresponds to a Ki of 7220 nM. Still for that read-out and setting: the result for `CN(C)CCOc1cccc(Br)n1` reads 902 nM; that for `Cc1cccc(C)c1-c1cccc(SCCN(C)C)n1`, 927 nM. As for `CN(C)CCSc1cccc(-c2ccccc2)c1`, the Ki stood at 516 nM. The same measure, in the same setting: to `Cc1cccc(C)c1-c1cccc(SCCN(C)C)c1` belongs 2350 nM; to `CN(C)CCSc1cccc(-c2ccoc2)n1`, 28 nM; to `CN(C)CCSc1cccc(Br)c1`, 676 nM.

By Ki is commonly meant the dissociation constant of the complex between target and ligand, obtained from inhibition or displacement. A high value points to a looser hold on the target.
